The structures appear in SMILES notation. Where a name gives a salt, the structure may show the parent alone.

In one experiment the target is MELK (Homo sapiens, UniProt Q14680). Nature of the experiment: Kinase assay (IMAP fluorescence polarization, FITC-labeled histone H3 peptide). The experiment is classed as biochemical. Particulars: 50 micro-M ATP. In a few lines:
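Kinase (0.8 ng/μL) reacted with 100 nM FITC-histone H3 peptide and 50 μM ATP in 20 mM HEPES, 0.3 mM MgCl2, 2 mM DTT, 0.01% Tween-20, pH 7.4, for 1 hour at room temperature. Phosphorylation read by IMAP fluorescence polarization after adding binding solution; IC50 from four-parameter fit.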
(Fluorescence polarisation rises when a labelled molecule tumbles more slowly, as on binding a larger partner.)

The next experiment relates to 22Rv1 cells. Nature of the experiment: Cell-based assay, anti-proliferative activity (Cell Counting Kit-8, 72 hours). Particulars: Homo sapiens, 22Rv1, 72 h, read-out: IC50 (μM) (22Rvl). Details: species or system human. In a few lines: (§1)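 Cells seeded at 2,000–3,000 cells/well and exposed to candidate MELK inhibitors for 72 hours; growth measured with Cell Counting Kit-8. IC50 values calculated from the growth read-out.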
A general note: Formazan colour is commonly taken as a measure of viable cells.

The next experiment has as its system A549 cells. The experiment is described as above. The arrangement: species or system human. Particulars: Homo sapiens, A549, 72 h, read-out: IC50 (μM) (A549). In a few lines:
as §1

The next experiment concerns DU4475 cells. The description is as above. Details: species or system human. Particulars: Homo sapiens, DU-4475, 72 h, read-out: IC50 (μM) (DU4475). In a few lines:
as §1

In the next experiment the test system is T47D cells. The description is as above. The arrangement: species or system human. Particulars: Homo sapiens, T47D, 72 h, read-out: IC50 (μM) (T47D). An outline of the steps: as §1
The next experiment has as its system HT1197 cells. Nature of the experiment: Cell-based assay, anti-proliferative activity, MELK-negative control (Cell Counting Kit-8, 72 hours). The arrangement: species or system human. Particulars: Homo sapiens, HT1197, 72 h, read-out: IC50 (μM) (HTll97). How it is done:
100 micro-L of cell suspension was seeded onto 96-well microtiter plate (ViewPlate-96FTC, PerkinElmer). The initial cell concentration of 22Rv1, T47D, A549, DU4475, and HT1197 were 3,000 cells/well, 2,000 cells/well and 2,500 cells/well, respectively. Cellular growth was determined using Cell Counting Kit-8 (DOJINDO) at 72 hours after the exposure of the candidate inhibitors. […] Accurate IC50 values were calculated as described previously.

Sequence of MELK (Q14680 whole entry, looked up): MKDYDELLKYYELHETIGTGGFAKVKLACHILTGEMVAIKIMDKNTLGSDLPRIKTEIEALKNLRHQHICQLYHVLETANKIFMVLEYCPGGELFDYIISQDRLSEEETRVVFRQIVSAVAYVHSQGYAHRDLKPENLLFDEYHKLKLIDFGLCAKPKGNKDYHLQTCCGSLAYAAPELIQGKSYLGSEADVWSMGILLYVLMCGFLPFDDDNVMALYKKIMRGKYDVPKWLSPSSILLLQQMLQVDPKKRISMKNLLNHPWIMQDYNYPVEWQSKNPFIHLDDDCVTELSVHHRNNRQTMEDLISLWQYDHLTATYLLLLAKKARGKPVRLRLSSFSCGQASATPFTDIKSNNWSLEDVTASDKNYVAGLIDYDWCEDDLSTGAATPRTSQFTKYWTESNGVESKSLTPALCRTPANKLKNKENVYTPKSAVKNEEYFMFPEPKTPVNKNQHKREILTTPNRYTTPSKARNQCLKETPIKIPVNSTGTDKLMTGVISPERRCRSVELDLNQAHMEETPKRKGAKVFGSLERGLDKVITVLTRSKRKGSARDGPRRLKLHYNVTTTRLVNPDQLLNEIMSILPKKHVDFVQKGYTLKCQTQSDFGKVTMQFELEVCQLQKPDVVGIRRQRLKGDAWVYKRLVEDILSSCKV

The term IC50 denotes the concentration that gives 50% inhibition. On to `CCC(=O)c1cnc2ccc(-c3cc(Cl)c(O)c(Cl)c3)nc2c1N[C@H]1CC[C@H](CN(C)C)CC1` [Example 206, 1-[6-(3,5-dichloro-4-hydroxyphenyl)-4-({trans-4-[(dimethylamino)methyl]cyclohexyl}amino)-1,5-naphthyridin-3-yl)]propan-1-one dihydrochloride], for which the half-maximal inhibitory concentration (IC50) turned out to be 0.0013 µM at MELK; 0.022 µM with 22Rv1 cells; 0.061 µM in the experiment with A549 cells; 0.023 µM with DU4475 cells; 0.01 µM in the experiment on T47D cells; 10 µM in the experiment on HT1197 cells.
In the case of `CCC(=O)c1cnc2ccc(-c3cc(Cl)c(O)c(Cl)c3)nc2c1Nc1ccc(N2CCC[C@H](N)C2)nc1` [Example 207, (S)-1-(4-{[6-(3-aminopiperidin-1-yl)pyridin-3-yl]amino}-6-(3,5-dichloro-4-hydroxyphenyl)-1,5-naphthyridin-3-yl)propan-1-one trihydrochloride], the IC50 was 0.0016 µM on MELK; 0.034 µM in the experiment with 22Rv1 cells; 0.098 µM with A549 cells; 0.024 µM in the experiment on DU4475 cells; 0.018 µM with T47D cells; 3.9 µM in the experiment on HT1197 cells.
For the compound `CCC(=O)c1cnc2ccc(-c3cc(F)c(O)c(Cl)c3)nc2c1Nc1ccc(N2CCC[C@H](N)C2)nc1` [Example 208, (S)-1-(4{[6-(3-aminopiperidin-1-yl)pyridin-3-yl]amino}-6-(3-chloro-5-fluoro-4-hydroxyphenyl)-1,5-naphthyridin-3-yl)propan-1-one trihydrochloride], the IC50 was 0.0026 µM on MELK; 0.026 µM in the experiment with 22Rv1 cells; 0.063 µM in the experiment on A549 cells; 0.021 µM with DU4475 cells; 0.015 µM in the experiment on T47D cells; 0.86 µM with HT1197 cells.
`CC(=O)c1cnc2ccc(-c3cc(Cl)c(O)c(Cl)c3)nc2c1N[C@H]1CC[C@H](CN2CC[C@@H](F)C2)CC1` [Example 209, 1-[6-(3,5-dichloro-4-hydroxyphenyl)-4-({4-[((R)-3-fluoropyrrolidin-1yl)methyl]cyclohexyl}amino)-1,5-naphthyridin-3-yl]ethanone dihydrochloride]: the concentration for half-maximal inhibition (IC50) against MELK is 0.002 µM; with 22Rv1 cells, 0.032 µM; in the experiment with A549 cells, 0.037 µM; in the experiment on DU4475 cells it was 0.01 µM; with T47D cells it was 0.036 µM; in the experiment on HT1197 cells, 0.12 µM.
Regarding `N[C@H]1CCCN(c2ccc(Nc3c(C(=O)C4CCC4)cnc4ccc(-c5cc(F)c(O)c(Cl)c5)nc34)cn2)C1` [Example 210, (S)-(4-((6-(3-aminopiperidin-1-yl)pyridin-3-yl)amino)-6-(3-chloro-5-fluoro-4-hydroxyphenyl)-1,5-naphthyridin-3-yl)(cyclobutyl)methanone dihydrochloride], the 50% inhibitory concentration (IC50) at MELK was 0.0014 µM; with 22Rv1 cells, 0.017 µM; with A549 cells it was 0.042 µM; in the experiment with DU4475 cells, 0.022 µM; in the experiment with T47D cells, 0.0093 µM; with HT1197 cells, 1.4 µM.
`CN(C)C[C@H]1CC[C@H](Nc2c(C(=O)C3CCC3)cnc3ccc(-c4cc(Cl)c(O)c(Cl)c4)nc23)CC1` [Example 211, (6-(3,5-dichloro-4-hydroxyphenyl)-4-((4-[(dimethylamino)methyl{cyclohexyl)amino)-1,5-naphthyridin-3-yl) (cyclobutyl)methanone dihydrochloride]: the IC50 on MELK came out at 0.0027 µM; in the experiment on 22Rv1 cells, 0.0072 µM; with A549 cells, 0.0076 µM; with DU4475 cells, 0.003 µM; with T47D cells, 0.0034 µM; in the experiment on HT1197 cells, 0.0077 µM.
As for `CN(C)C[C@H]1CC[C@H](Nc2c(C(=O)C3CCC3)cnc3ccc(-c4cc(F)c(O)c(Cl)c4)nc23)CC1` [Example 212, (6-(3-chloro-5-fluoro-4-hydroxyphenyl)-4-((4-((dimethylamino)methyl)cyclohexyl)amino)-1,5-naphthyridin-3-yl)(cyclobutyl)methanone dihydrochloride], the IC50 came to 0.0016 µM against MELK; 0.013 µM in the experiment with 22Rv1 cells; 0.014 µM in the experiment on A549 cells; 0.003 µM with DU4475 cells; 0.0074 µM in the experiment with T47D cells; 0.014 µM with HT1197 cells.

Source of the values: patent US9067937B2 (priority 2012, dated 2015).
